Like-named read-outs stand apart in the source and are kept apart here.
Tests used:
eIF4A = biological target: T1, eIF4A (Homo sapiens, UniProt P60842); assay: B-PatA streptavidin pull-down competition; format: binding; settings: RKO cell lysate, pre-incubation with competitor
T1 construct: Cell lysates from RKO cells were prepared as previously described; endogenous in cells; host or cells: RKO cell lysate
Protocol: Streptavidin-agarose Pulldown with B-PatA. Cell lysates from RKO cells were prepared as previously described (Griffith et al., 1997). HeLa lysates were prepared in buffer: 10 mM HEPES-OH, pH 7.6, 10 mM KC2H3O2, and 0.5 mM MgC2H3O2. RRL and WGE were diluted about 12 fold using HeLa lysate buffer. All pulldowns included protease inhibitors. Streptavidin-beads were pre-incubated with 10 mg/ml BSA in buffer for 1 h at 4° C. with mixing. Equal aliquots of lysate (200 μl) were incubated with DMSO or PatA analog for 1 h at 4° C. with mixing, followed by addition of DMSO or B-PatA and incubation for 2 h. Each sample was combined with equal amounts of pre-blocked beads and incubated for 1 h at 4° C. Beads were washed with 3 ml of buffer, boiled in SDS-PAGE loading buffer and analyzed by SDS-PAGE and silver-staining or immunoblotting.

cancer cell lines = assay: cell proliferation assay ([3H]-thymidine incorporation), cancer cell lines; format: cell-based
Protocol: Cell Proliferation Assay. 1×10^5 of indicated cells in each well of a 96-well plate were treated with indicated compounds for 24 h followed by addition of 0.11 μCi of [^3H]-thymidine (6.7 Ci/mmol) per well for 6 h, followed by harvesting to GF/C filtermats using a cell harvester. Filtermats were air-dried and scintillation counted. IC50s were determined from quadruplicate data readings and curve-fitting analysis.

[1] = test system: protein synthesis in HeLa S3 cells; assay: metabolic labelling, protein synthesis ([35S]-methionine/cysteine); format: cell-based
Protocol: (§1) Metabolic Labelling. About 5000 HeLa S3 cells per well in 96-well plates were cultured overnight in duplicate. One set of plates were washed twice with, then incubated for 20 min in Met and Cys free medium, then exchanged for labeling medium (RPMI 1640 with 10% FBS dialyzed in PBS overnight, and 0.15 mCi/ml [^35S]-Met and [^35S]-Cys) with indicated compounds and final volume of 100 μl per well. After 1 h or 3 h incubation, and two washes with ice-cold PBS, cells were lysed in RIPA buffer, under agitation for 30 min at 4° C. 5 μl of lysate from each well was combined with 25 μl of 1 mg/ml BSA, and added to 96 well plates, followed by addition of 150 μl of 5% TCA in ethanol and incubated at 4° C. for 30 min. Filtration was performed on a vacuum manifold as per manufacturer's instructions with 2 washes of 5% TCA in ethanol, then twice with 100% ethanol. After air-drying, scintillation counting was performed. For the second set, replacement media contained […] [^3H]-uridine and indicated compound, and incubated for 1 or 3 h. Remaining procedure was identical to cell proliferation assay.

[2] = test system: RNA synthesis in HeLa S3 cells; assay: metabolic labelling, RNA synthesis ([3H]-uridine); format: cell-based
Protocol: as §1

HeLa cells = format: cell-based
[3] = test system: mixed lymphocyte reaction; settings: read-out: IC50 in MLR (mixed lymphocyte reaction) assay; cited from earlier work
stability in CDCl3 = format: physicochemical; settings: CDCl3, 25° C.
eIF4A-eIF4B = biological target: T2, eIF4A-eIF4B (Homo sapiens, UniProt P60842); assay: 6XHis-eIF4AI pulldown, eIF4A-eIF4B interaction; format: binding; settings: HeLa lysate; PatA at 100 μM
T2 construct: The entire ORF of human eIF4AI was ligated in-frame into the BamHI and HindIII sites of the pET-28a expression vector; made in house; host or cells: bait from E. coli BL21(DE3); eIF4B endogenous in HeLa lysate
Protocol: 6XHis-eIF4AI pulldown, Co-immunoprecipitation, and m^7GTP-Sepharose pulldown. For 6XHis-eIF4AI pulldowns, HeLa lysates were prepared as described above. Equal aliquots (200 μl) of lysate were incubated with PatA analogs or DMSO and 8.5 μg of 6XHis-eIF4AI overnight at 4° C., followed by addition of Ni-NTA resin for 1 h, then resin was washed with 3 ml buffer, and boiled in SDS-PAGE loading buffer followed by SDS-PAGE and immunoblotting with indicated antibodies. For co-immunoprecipitation, 293T cells with vector control or pcDNA3-Flag-4B lysates were prepared by pipetting in: 20 mM HEPES, pH 7.4, 100 mM KCl, 0.5% Triton-X-100, 20% glycerol, protease inhibitor and 15 μg/ml RNAse A followed by clearing at 13 000 g (10 min). For DMDA-PatA treated samples, lysis and wash buffers also contained 100 nM DMDA-PatA. Anti-Flag antibody was incubated overnight at 4° C., followed by addition of Protein G beads for 4 h. Beads were washed 3× with 500 μl buffer, boiled in SDS-PAGE loading buffer followed by SDS-PAGE and immunoblotting. m^7GTP-Sepharose was performed as described (Yoder-Hill et al., 1993) with modifications. 30 μl RRL was incubated with DMSO or DMDA-PatA at room temperature for 30 min, diluted with buffer supplemented with DMSO or DMDA-PatA (20 nM), then combined with 50 μl beads for 3 h at 4° C. followed by 4 washes with 1 ml buffer. […]

[4] = test system: IL-2 promoter luciferase reporter in stimulated Jurkat T cells; assay: IL-2 reporter gene assay (transfected Jurkat cells); format: cell-based
Protocol: The ability of these derivatives to inhibit T cell receptor-mediated IL-2 production was analyzed using an IL-2 reporter gene assay. In this assay, a plasmid encoding a reporter gene (luciferase) under the control of the IL-2 promoter was first introduced into Jurkat T cells by transfection. The transfected Jurkat T cells are then stimulated with two pharmacological agents, phorbol myristyl acetate (PMA), which activates protein kinase C, and inonmycin, which allows calcium ion to enter T cells to activate calmodulin and calcineurin. Together, PMA and ionomycin recapitulate T cell receptor signaling, leading to the activation of the luciferase reporter gene by activating the IL-2 promoter. The ability of PatA and its analogs to block T cell receptor-mediated IL-2 expression was measured by their effects on this reporter gene assay. Su, B., et a., Cell 1994, 77, 727-736.

T2 sequence (P60842 whole entry): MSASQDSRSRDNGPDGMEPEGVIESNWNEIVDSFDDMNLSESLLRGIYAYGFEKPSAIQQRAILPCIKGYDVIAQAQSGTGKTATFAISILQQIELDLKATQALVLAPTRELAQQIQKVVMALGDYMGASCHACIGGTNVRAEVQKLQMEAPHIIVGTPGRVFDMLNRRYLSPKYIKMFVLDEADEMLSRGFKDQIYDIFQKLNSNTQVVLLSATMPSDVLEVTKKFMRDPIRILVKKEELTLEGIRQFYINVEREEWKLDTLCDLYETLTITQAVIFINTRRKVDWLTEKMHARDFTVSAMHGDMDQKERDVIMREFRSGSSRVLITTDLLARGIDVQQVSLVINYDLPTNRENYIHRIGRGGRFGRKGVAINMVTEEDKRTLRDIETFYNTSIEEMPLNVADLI
T2 sequence (P23588 whole entry partner): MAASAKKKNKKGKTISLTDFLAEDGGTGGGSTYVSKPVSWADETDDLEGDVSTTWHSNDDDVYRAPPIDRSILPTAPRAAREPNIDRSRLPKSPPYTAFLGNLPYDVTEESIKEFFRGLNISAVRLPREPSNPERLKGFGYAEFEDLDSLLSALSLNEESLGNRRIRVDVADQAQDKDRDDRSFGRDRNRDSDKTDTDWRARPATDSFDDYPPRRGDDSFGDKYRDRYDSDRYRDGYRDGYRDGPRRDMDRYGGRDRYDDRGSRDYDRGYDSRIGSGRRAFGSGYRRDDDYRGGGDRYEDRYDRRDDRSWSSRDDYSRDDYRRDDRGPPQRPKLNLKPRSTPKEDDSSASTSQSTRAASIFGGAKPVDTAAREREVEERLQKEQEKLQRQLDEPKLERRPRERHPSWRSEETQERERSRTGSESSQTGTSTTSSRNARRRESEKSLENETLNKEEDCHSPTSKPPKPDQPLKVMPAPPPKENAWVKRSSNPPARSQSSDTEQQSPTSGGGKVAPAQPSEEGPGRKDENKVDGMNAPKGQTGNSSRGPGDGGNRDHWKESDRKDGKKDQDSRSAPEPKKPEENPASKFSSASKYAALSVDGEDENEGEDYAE
T1 sequence (P60842 2-406): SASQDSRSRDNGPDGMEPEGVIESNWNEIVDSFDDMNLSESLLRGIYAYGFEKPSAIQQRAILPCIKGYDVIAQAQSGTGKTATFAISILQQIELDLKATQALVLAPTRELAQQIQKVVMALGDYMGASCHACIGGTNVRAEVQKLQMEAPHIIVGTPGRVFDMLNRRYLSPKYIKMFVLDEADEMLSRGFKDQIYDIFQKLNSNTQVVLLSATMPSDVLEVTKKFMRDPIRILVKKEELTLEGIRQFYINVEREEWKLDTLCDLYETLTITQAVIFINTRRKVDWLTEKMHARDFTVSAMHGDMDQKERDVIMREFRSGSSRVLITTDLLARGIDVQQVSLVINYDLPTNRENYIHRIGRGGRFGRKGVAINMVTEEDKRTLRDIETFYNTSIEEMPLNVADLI

| Structure (SMILES) | competition with B-PatA for eIF4A binding (eIF4A) | IC50 (cancer cell lines; all cancer cell lines (FIG. 12), read-out: IC50, inhibition of proliferation) [nM] | IC50 ([1]; 1 h treatment, read-out: IC50, inhibition of protein synthesis) [nM] | effect on RNA synthesis [2] | stress granule formation (HeLa cells) | IC50 [3] [nM] | decomposes in CDCl3 (stability in CDCl3) [min] | effect on eIF4A-eIF4B interaction (eIF4A-eIF4B) | IC50 ([4]; stimulated Jurkat T cells, listed as native pateamine A, read-out: IC50, inhibition of IL-2 production / IL-2 reporter gene) [nM] | IC50 ([4]; stimulated Jurkat T cells, read-out: IC50, inhibition of IL-2 production / IL-2 reporter gene) [nM] | activity in cell proliferation assays (cancer cell lines) | effect on protein synthesis [1] | stable in CDCl3 (stability in CDCl3) | IC50 ([4]; stimulated Jurkat T cells, listed as DMDA PatA 3, read-out: IC50, inhibition of IL-2 production / IL-2 reporter gene) [nM] | IC50 ([4]; stimulated Jurkat T cells, listed as DMDA PatA, read-out: IC50, inhibition of IL-2 production / IL-2 reporter gene) [nM] | IC50 ([4]; transfected Jurkat cells, same population of Jurkat T cells, read-out: IC50) [nM] |
| --- | --- | --- | --- | --- | --- | --- | --- | --- | --- | --- | --- | --- | --- | --- | --- | --- |
| CC(/C=C/C(C)=C/[C@@H]1Cc2nc(cs2)[C@@H](C)C[C@@H](N)CC(=O)O[C@@H](C)C/C(C)=C/C=C\C(=O)O1)=C\CN(C)C [Pat A (1), Pateamine A] | effectively competed away | < 1 | 3.3 | inhibitory effect on RNA synthesis | capable of inducing stress granule formation | 2.6 | < 10 | increase in amount of eIF4B observed | 4.01 ± 0.94 | 4 ± 0.9 | – | – | – | – | – | – |
| CC(/C=C/C(C)=C/[C@@H]1Cc2nc(cs2)CCCCC(=O)O[C@@H](C)C/C(C)=C/C=C\C(=O)O1)=C\CN(C)C [compound 3, desmethyl, desamino-pateamine A] | competitive | – | – | secondary effect on RNA synthesis | – | – | – | enhancement of eIF4A-eIF4B interaction | – | – | retain most of the activity of PatA | inhibited protein synthesis | 3-4 weeks | 0.8 ± 0.3 | 0.81 ± 0.27 | 0.808 |
